Data from PMC9822050, “Antiviral Activities of Ethyl Pheophorbides a and b Isolated from Aster pseudoglehnii against Influenza Viruses” (Molecules, 2022).
Converted amounts (≈) assume the structure as drawn.

What was measured:
IAV [1] = test: Time-of-drug-addition assay, viral RNA transcript levels via qRT-PCR; assay type: cell-based, influenza A virus (PR8-GFP)
IAV [2] = test: Western blot analysis of IAV HA protein level after time-of-drug-addition treatment; assay type: cell-based, influenza A virus (PR8-GFP)
IAV [3] = test: Plaque reduction assay, IAV; assay type: cell-based, influenza A virus (PR8-GFP); conditions: Influenza A virus, MDCK, virus pre-treated 1 h at room temperature, MDCK cells, MOI 0.01, plaque assay 48 h after infection; read-out: 50% inhibitory concentration (IC50) for IAV
Method: All experiments were performed in triplicate.

HA2 = HA2 (Influenza A virus, UniProt P03452); test: Hemolysis inhibition assay with chicken red blood cells; conditions: IAV treated with 1 µg/mL, cRBC 2%, pH 5.2
Sequence of HA2 (P03452 344-565 limits assumed): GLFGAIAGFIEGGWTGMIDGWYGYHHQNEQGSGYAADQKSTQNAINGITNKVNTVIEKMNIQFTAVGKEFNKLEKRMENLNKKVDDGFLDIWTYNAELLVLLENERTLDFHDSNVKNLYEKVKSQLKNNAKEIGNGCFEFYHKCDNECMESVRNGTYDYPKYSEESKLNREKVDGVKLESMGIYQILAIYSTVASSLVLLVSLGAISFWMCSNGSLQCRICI
Sequence of HA2 (P03452 18-343 partner limits assumed): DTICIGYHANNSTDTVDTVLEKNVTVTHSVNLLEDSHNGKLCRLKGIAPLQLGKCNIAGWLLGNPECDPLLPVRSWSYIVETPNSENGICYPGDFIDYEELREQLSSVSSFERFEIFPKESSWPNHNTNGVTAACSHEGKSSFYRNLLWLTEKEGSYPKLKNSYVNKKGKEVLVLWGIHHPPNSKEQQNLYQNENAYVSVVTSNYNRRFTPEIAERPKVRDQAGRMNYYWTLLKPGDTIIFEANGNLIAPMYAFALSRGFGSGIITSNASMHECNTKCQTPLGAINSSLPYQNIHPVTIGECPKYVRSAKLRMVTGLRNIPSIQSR

adenovirus = test: Adenovirus plaque assay; conditions: virus pre-treated 1 h at room temperature, 293A cells
MDCK cells = test: Cytotoxicity / MTT assay; assay type: cell-based, canine; conditions: 48 h, up to a concentration of 10 µg/mL
Method: To clarify whether the inhibitory activities of ethyl pheophorbides a and b are mediated through cytotoxicity, MDCK cells were treated with different concentrations of each compound and cell viability was determined after 48 h via the MTT assay (Figure S7).
After a 4 h period, tetrazolium crystals were dissolved with DMSO and absorbance was measured at 560 nm.

IBV = test: Plaque reduction assay, IBV; conditions: Influenza B virus, MDCK, read-out: 50% inhibitory concentration (IC50) for IBV, virus pre-treated 1 h at room temperature, MDCK cells, MOI 0.001, plaque assay 48 h after infection
IAV NA = IAV NA (Influenza A virus, UniProt P03468); assay type: biochemical
Sequence of IAV NA (P03468 whole entry, looked up): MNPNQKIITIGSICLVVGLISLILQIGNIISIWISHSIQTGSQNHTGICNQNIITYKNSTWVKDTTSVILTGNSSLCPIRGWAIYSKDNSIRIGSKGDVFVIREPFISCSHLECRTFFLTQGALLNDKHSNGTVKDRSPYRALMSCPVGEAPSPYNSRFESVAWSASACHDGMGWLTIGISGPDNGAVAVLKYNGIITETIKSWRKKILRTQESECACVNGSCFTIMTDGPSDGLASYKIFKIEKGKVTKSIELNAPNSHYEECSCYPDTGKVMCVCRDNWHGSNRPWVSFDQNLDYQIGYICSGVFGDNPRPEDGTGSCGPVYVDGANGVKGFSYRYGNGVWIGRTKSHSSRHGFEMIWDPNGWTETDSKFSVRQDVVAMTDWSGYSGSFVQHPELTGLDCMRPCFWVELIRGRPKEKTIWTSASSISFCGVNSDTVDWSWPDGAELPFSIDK

HA1 = HA1 (Influenza A virus, UniProt P03452); test: Hemagglutination inhibition assay with chicken red blood cells; conditions: IAV treated with 1 µg/mL, cRBC 0.5%
Sequence of HA1 (P03452 18-343 limits assumed): as the sequence (P03452 18-343 partner limits assumed) above
Sequence of HA1 (P03452 344-565 partner limits assumed): as the sequence (P03452 344-565 limits assumed) above

## NC12CC3CC(CC(C3)C1)C2 [Amantadine, reference compound]
IAV [1]; treatment during virus adsorption to host cells, 1 mM
  IAV replication (viral RNA transcript level): marked decrease
IAV [2]; treatment during adsorption, 1 mM, western blot
  IAV HA protein level: marked downregulation

## C=CC1=C(C)c2cc3[nH]c(c4c5nc(cc6[nH]c(cc1n2)c(C)c6CC)C(C)=C5C(=O)C4C(=O)OC)C(CCC(=O)OCC)C3C (centres unmarked) [ethyl pheophorbide a]
IAV [3]
  IC50: 0.086 ± 0.072 µg/mL (≈ 0.139 µM)
IAV [1]
  IAV transcript levels: significantly reduced
HA2
  hemolysis inhibition (HA2 function): no effect
adenovirus
  effect against non-enveloped adenovirus: no effect
IAV [2]
  expression of IAV HA protein: significantly suppressed
MDCK cells
  cell viability (MTT): no adverse effects on cell viability
IBV
  IC50: 1.62 ± 0.86 µg/mL (≈ 2.61 µM)
IAV NA
  effect on IAV NA activity: no effects
HA1
  hemagglutination inhibition (HA1 function): no effect

## C=CC1=C(C)c2cc3[nH]c(c4c5nc(cc6[nH]c(cc1n2)c(C=O)c6CC)C(C)=C5C(=O)C4C(=O)OCC)C(CCC(=O)O)C3C (centres unmarked) [ethyl pheophorbide b]
IAV [3]
  IC50: 0.094 ± 0.058 µg/mL (≈ 0.151 µM)
IAV [1]
  IAV transcript levels: significantly reduced
HA2
  hemolysis inhibition (HA2 function): no effect
adenovirus
  effect against non-enveloped adenovirus: no effect
IAV [2]
  expression of IAV HA protein: significantly suppressed
MDCK cells
  cell viability (MTT): no adverse effects on cell viability
IBV
  IC50: 3.17 ± 0.94 µg/mL (≈ 5.11 µM)
IAV NA
  effect on IAV NA activity: no effects
HA1
  hemagglutination inhibition (HA1 function): no effect
